pIC50: −log10 of the molar value.
How the values were obtained:
IGF 3P = target: T1, IGF 3P (Homo sapiens, UniProt P08069); assay: IGF1R kinase assay (LCCA), IGF 3P; assay type: biochemical; conditions: IGF1R kinase LCCA assay
T1 construct: human IGF1R kinase domain residues M954-C1367; made in house; host or cells: baculovirus expression (insect cells)
Method in brief: (§1)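 Read-out is percent ATP remaining, detected by luciferase-luciferin luminescence after a 2 h ambient reaction. Reaction contained 4 nM IGF1R kinase domain (residues M954-C1367, baculovirus-made), 3 μM ATP (near KM), 4 μM poly EY, pH 7.5 with Mg2+/Mn2+. Ten inhibitor concentrations; IC50 by Hill-type curve fit.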

[1] = target: T2, (Homo sapiens, UniProt P08069); assay: IGF1R kinase assay (LCCA), IGF 0P; assay type: biochemical; conditions: IGF1R kinase LCCA assay
T2 construct: human IGF1R kinase domain residues M954-C1367; made in house; host or cells: baculovirus expression (insect cells)
Method in brief: as §1

T1 sequence (P08069 954-1367): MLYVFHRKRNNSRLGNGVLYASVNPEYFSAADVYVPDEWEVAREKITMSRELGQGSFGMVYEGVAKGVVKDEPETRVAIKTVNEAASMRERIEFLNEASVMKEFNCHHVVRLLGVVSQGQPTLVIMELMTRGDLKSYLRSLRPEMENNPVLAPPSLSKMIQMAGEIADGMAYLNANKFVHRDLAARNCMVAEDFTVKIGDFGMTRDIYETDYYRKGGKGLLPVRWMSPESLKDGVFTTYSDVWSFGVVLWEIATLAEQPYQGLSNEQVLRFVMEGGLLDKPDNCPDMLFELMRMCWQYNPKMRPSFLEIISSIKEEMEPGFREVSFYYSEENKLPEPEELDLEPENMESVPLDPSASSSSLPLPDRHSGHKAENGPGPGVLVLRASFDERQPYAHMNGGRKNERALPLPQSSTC
T2 sequence (P08069 954-1367): as above

c1ccc(CN2CCc3c(nc(Nc4ccc(N5CCOCC5)cc4)nc3Nc3cc(C4CC4)[nH]n3)C2)cc1 [Example 281]
pIC50 (IGF 3P): < 5.30 | pIC50 [1]: < 5.30

c1cc(N2CCOCC2)ccc1Nc1nc2c(c(Nc3cc(C4CC4)[nH]n3)n1)CCNC2 [Example 282]
pIC50 (IGF 3P): < 5.30 | pIC50 [1]: < 5.30

c1ccc(-c2cc(CNc3nc4c(c(Nc5cc(C6CC6)[nH]n5)n3)CCNC4)on2)cc1 [Example 283]
pIC50 (IGF 3P): < 5.30 | pIC50 [1]: < 5.30

Nc1nc(C2CC2)nn1-c1nc(Nc2ccc(N3CCOCC3)cc2)ncc1Br [Example 284]
pIC50 (IGF 3P): < 5.30 | pIC50 [1]: < 5.30

Nc1ncnn1-c1nc(Nc2ccc(N3CCOCC3)cc2)ncc1Br [Example 285]
pIC50 (IGF 3P): < 5.30 | pIC50 [1]: < 5.30

Clc1ccccc1Nc1ncc(Br)c(Nc2cc(C3CC3)on2)n1 [Example 286]
pIC50 (IGF 3P): < 5.30 | pIC50 [1]: < 5.30

Nc1nc(Nc2ccc(N3CCOCC3)cc2)ncc1Br [Example 287]
pIC50 (IGF 3P): < 5.30 | pIC50 [1]: < 5.30

FC(F)(F)c1ccc(-c2ncc(CNc3ncc(Br)c(Nc4cc(C5CC5)[nH]n4)n3)s2)cc1 [Example 288]
pIC50 (IGF 3P): < 5.30 | pIC50 [1]: < 5.30

Clc1ccc(-c2ncc(CNc3ncc(Br)c(Nc4cc(C5CC5)[nH]n4)n3)s2)cc1 [Example 289]
pIC50 (IGF 3P): < 5.30 | pIC50 [1]: < 5.30

Clc1cccc(-c2ncc(CNc3ncc(Br)c(Nc4cc(C5CC5)[nH]n4)n3)s2)c1 [Example 290]
pIC50 (IGF 3P): < 5.30 | pIC50 [1]: < 5.30

Nc1cccc(Nc2nc(NCc3cc(-c4ccccc4)no3)ncc2Br)n1 [Example 291]
pIC50 (IGF 3P): < 5.30 | pIC50 [1]: < 5.30

Brc1cnc(NCc2cc(-c3ccccc3)no2)nc1Nc1ccccc1 [Example 292]
pIC50 (IGF 3P): < 5.30 | pIC50 [1]: < 5.30

CCCCNc1cc(C)nc(NCc2cc(-c3ccccc3)no2)n1 [Example 293]
pIC50 (IGF 3P): < 5.30 | pIC50 [1]: < 5.30

CCCCNc1cc(C)nc(Nc2ccc(N3CCOCC3)cc2)n1 [Example 294]
pIC50 (IGF 3P): < 5.30 | pIC50 [1]: < 5.30

Cc1cc(Nc2cc(C)on2)nc(Nc2ccc(N3CCOCC3)cc2)n1 [Example 295]
pIC50 (IGF 3P): < 5.30 | pIC50 [1]: < 5.30

Cc1cc(Nc2nc(NCc3cc(-c4ccccc4)no3)ncc2Br)no1 [Example 296]
pIC50 (IGF 3P): < 5.30 | pIC50 [1]: < 5.30

Cc1cc(Nc2ccc3ccccc3c2)nc(Nc2ccc(N3CCOCC3)cc2)n1 [Example 297]
pIC50 (IGF 3P): < 5.30 | pIC50 [1]: < 5.30

Cc1cc(NCc2ccccc2)nc(NCc2cc(-c3ccccc3)no2)n1 [Example 298]
pIC50 (IGF 3P): < 5.30 | pIC50 [1]: < 5.30

Cc1cc(Nc2ccc3ccccc3c2)nc(NCc2cc(-c3ccccc3)no2)n1 [Example 299]
pIC50 (IGF 3P): < 5.30 | pIC50 [1]: < 5.30

Cc1cc(Nc2cc(C3CC3)n[nH]2)nc(Nc2cc(C(F)(F)F)cc(C(F)(F)F)c2)n1 [Example 300]
pIC50 (IGF 3P): < 5.30 | pIC50 [1]: < 5.30

Cc1cc(Nc2cc(C3CC3)n[nH]2)nc(Nc2cc(Br)cc(C(F)(F)F)c2)n1 [Example 301]
pIC50 (IGF 3P): < 5.30 | pIC50 [1]: < 5.30

COc1cc(Nc2nc(C)cc(Nc3cc(C4CC4)n[nH]3)n2)cc(C(F)(F)F)c1 [Example 302]
pIC50 (IGF 3P): < 5.30 | pIC50 [1]: < 5.30

Clc1cc(Cl)cc(Nc2ncc(Br)c(Nc3cc(C4CC4)n[nH]3)n2)c1 [Example 303]
pIC50 (IGF 3P): < 5.30 | pIC50 [1]: < 5.30

FC(F)(F)c1cc(Nc2ncc(Br)c(Nc3cc(C4CC4)n[nH]3)n2)cc(C(F)(F)F)c1 [Example 304]
pIC50 (IGF 3P): < 5.30 | pIC50 [1]: < 5.30

FC(F)(F)c1cc(Br)cc(Nc2ncc(Br)c(Nc3cc(C4CC4)n[nH]3)n2)c1 [Example 305]
pIC50 (IGF 3P): < 5.30 | pIC50 [1]: < 5.30

Cc1cc(Nc2n[nH]cc2C#N)nc(NCc2cc(-c3ccccc3)no2)n1 [Example 306]
pIC50 (IGF 3P): < 5.30 | pIC50 [1]: < 5.30

Cc1cc(Nc2cc(C)on2)nc(NCc2cc(-c3ccccc3)no2)n1 [Example 307]
pIC50 (IGF 3P): < 5.30 | pIC50 [1]: < 5.30

Cc1cc(N2CCN(C)CC2)nc(N2CCN(C)CC2)n1 [Example 308]
pIC50 (IGF 3P): < 5.30 | pIC50 [1]: < 5.30

Cc1cc(Nc2ccccc2)nc(Nc2ccc(CCC(=O)NCCN3CCCC3)cc2)n1 [Example 309]
pIC50 (IGF 3P): < 5.30 | pIC50 [1]: < 5.30

CCN(CC)CCNC(=O)CCc1ccc(Nc2nc(C)cc(Nc3ccccc3)n2)cc1 [Example 310]
pIC50 (IGF 3P): < 5.30 | pIC50 [1]: < 5.30

c1cc(Nc2ccon2)nc(Nc2ccc(N3CCOCC3)cc2)n1 [Example 311]
pIC50 (IGF 3P): < 5.30 | pIC50 [1]: < 5.30

Fc1cc(F)cc(Nc2ncc(Br)c(Nc3cc(C4CC4)n[nH]3)n2)c1 [Example 313]
pIC50 (IGF 3P): < 5.30 | pIC50 [1]: < 5.30

Nc1ncc(Br)c(Nc2cc(C3CC3)[nH]n2)n1 [Example 314]
pIC50 (IGF 3P): < 5.30 | pIC50 [1]: < 5.30

CC(C)(C)OC(=O)N1CCC(CNc2ncc(Br)c(Nc3cc(C4CC4)n[nH]3)n2)CC1 [Example 315]
pIC50 (IGF 3P): < 5.30 | pIC50 [1]: < 5.30

Brc1cnc(Nc2ccncc2)nc1Nc1cc(C2CC2)[nH]n1 [Example 316]
pIC50 (IGF 3P): < 5.30 | pIC50 [1]: < 5.30

Brc1cnc(Nc2cc(-c3ccccc3)n[nH]2)nc1Nc1cc(-c2ccccc2)n[nH]1 [Example 319]
pIC50 (IGF 3P): < 5.30 | pIC50 [1]: < 5.30

Brc1cnc(Nc2ccc(OCc3ccccc3)cc2)nc1Nc1cc(C2CC2)n[nH]1 [Example 320]
pIC50 (IGF 3P): < 5.30 | pIC50 [1]: < 5.30

Brc1cnc(Nc2ccc(Oc3ccccc3)cc2)nc1Nc1cc(C2CC2)[nH]n1 [Example 321]
pIC50 (IGF 3P): < 5.30 | pIC50 [1]: < 5.30

Brc1cnc(Nc2ccc(-c3ccccc3)cc2)nc1Nc1cc(C2CC2)[nH]n1 [Example 322]
pIC50 (IGF 3P): < 5.30 | pIC50 [1]: < 5.30

Brc1cnc(NCc2cc(-c3ccccc3)no2)nc1Nc1cc(-c2ccccc2)n[nH]1 [Example 323]
pIC50 (IGF 3P): < 5.30 | pIC50 [1]: < 5.30

Clc1ccc(-c2ccc(CNc3ncc(Br)c(Nc4cc(C5CC5)n[nH]4)n3)s2)cc1 [Example 324]
pIC50 (IGF 3P): < 5.30 | pIC50 [1]: < 5.30

Clc1cc(Nc2ncc(Br)c(Nc3cc(C4CC4)n[nH]3)n2)cc(Cl)c1Cl [Example 325]
pIC50 (IGF 3P): < 5.30 | pIC50 [1]: < 5.30

CC(C)(C)OC(=O)N1CCC(Nc2ncc(Br)c(Nc3cc(C4CC4)[nH]n3)n2)CC1 [Example 326]
pIC50 (IGF 3P): < 5.30 | pIC50 [1]: < 5.30

Nc1ccc(Nc2nc(Nc3cc(C4CC4)n[nH]3)ncc2Br)cc1 [Example 327]
pIC50 (IGF 3P): < 5.30 | pIC50 [1]: < 5.30

Brc1cnc(NCCC(c2ccccc2)c2ccccc2)nc1Nc1cc(C2CC2)[nH]n1 [Example 328]
pIC50 (IGF 3P): < 5.30 | pIC50 [1]: < 5.30

Brc1cnc(NCC(c2ccccc2)c2ccccc2)nc1Nc1cc(C2CC2)[nH]n1 [Example 329]
pIC50 (IGF 3P): < 5.30 | pIC50 [1]: < 5.30

Brc1cnc(Nc2cccc(Oc3ccccc3)c2)nc1Nc1cc(C2CC2)n[nH]1 [Example 330]
pIC50 (IGF 3P): < 5.30 | pIC50 [1]: < 5.30

O=[N+]([O-])c1cnc(Nc2ccc(Cl)cc2Cl)nc1Nc1cc(C2CC2)n[nH]1 [Example 331]
pIC50 (IGF 3P): < 5.30 | pIC50 [1]: < 5.30

NC(=O)c1c[nH]nc1Nc1nc(Nc2ccccc2Cl)ncc1Br [Example 332]
pIC50 (IGF 3P): < 5.30 | pIC50 [1]: < 5.30

Brc1cnc(NC(Cc2ccccc2)c2ccccc2)nc1Nc1cc(C2CC2)[nH]n1 (centres unmarked) [Example 333]
pIC50 (IGF 3P): < 5.30 | pIC50 [1]: < 5.30

Brc1cnc(Nc2ccccc2N2CCCCC2)nc1Nc1cc(C2CC2)[nH]n1 [Example 334]
pIC50 (IGF 3P): < 5.30 | pIC50 [1]: < 5.30

O=C(c1ccccc1)c1ccccc1Nc1ncc(Br)c(Nc2cc(C3CC3)n[nH]2)n1 [Example 335]
pIC50 (IGF 3P): < 5.30 | pIC50 [1]: < 5.30

Nc1ncnc2c1c(-c1ccc(NC(=O)C3(C(=O)Nc4ccc(F)cc4)CC3)cc1)cn2C1CC(CN2CCCC2)C1 (centres unmarked) [Example 343]
pIC50 (IGF 3P): 5.30 to 6.30 | pIC50 [1]: 5.30 to 6.30

NCCCCn1cc(-c2cccc(OCc3ccccc3)c2)c2c(N)ncnc21 [Example 344]
pIC50 (IGF 3P): 5.30 to 6.30 | pIC50 [1]: < 5.30

CC(=O)NCC=CCn1cc(-c2cccc(OCc3ccccc3)c2)c2c(N)ncnc21 [Example 345]
pIC50 (IGF 3P; IGF 3P): 5.30 to 6.30 | pIC50 ([1]; IGF 0P): < 5.30

CC(=O)NCC1CC(n2cc(-c3cccc(OCc4ccccc4)c3)c3c(NC(C)=O)ncnc32)C1 (centres unmarked) [Example 346]
pIC50 (IGF 3P): 5.30 to 6.30 | pIC50 [1]: < 5.30

Nc1ncnc2c1c(-c1ccc(NC(=O)C3(C(=O)Nc4ccc(F)cc4)CC3)cc1)cn2CC1CC2CNCC2C1 (centres unmarked) [Example 347]
pIC50 (IGF 3P): < 5.30 | pIC50 [1]: < 5.30

Nc1ncnc2c1c(-c1cccc(OCc3ccccc3)c1)cn2C1CNC1 [Example 348]
pIC50 (IGF 3P): 5.30 to 6.30 | pIC50 [1]: < 5.30

CC(=O)N1CCC(n2cc(-c3cccc(OCc4ccccc4)c3)c3c(N)ncnc32)CC1 [Example 349]
pIC50 (IGF 3P): < 5.30 | pIC50 [1]: < 5.30

Nc1ncnc2c1c(-c1cccc(OCc3ccccc3)c1)cn2C1CCCCC1 [Example 350]
pIC50 (IGF 3P): 5.30 to 6.30 | pIC50 [1]: < 5.30

Nc1ncnc2c1c(-c1cccc(Oc3ccccc3)c1)cn2C1CCCC1 [Example 354]
pIC50 (IGF 3P): < 5.30 | pIC50 [1]: < 5.30

CC(=O)NCC#CCn1cc(-c2cccc(OCc3ccccc3)c2)c2c(N)ncnc21 [Example 355]
pIC50 (IGF 3P): < 5.30 | pIC50 [1]: < 5.30

Nc1ncnc2c1c(-c1cccc(OCc3ccccc3)c1)cn2CC1CC2CN(C(=O)OCc3ccccc3)CC2C1 (centres unmarked) [Example 356]
pIC50 (IGF 3P): < 5.30 | pIC50 [1]: < 5.30

Nc1ncnc2c1c(-c1ccc(NC(=O)C3(C(=O)Nc4ccc(F)cc4)CC3)cc1)cn2CC1CC2CN(C(=O)OCc3ccccc3)CC2C1 (centres unmarked) [Example 357]
pIC50 (IGF 3P): < 5.30 | pIC50 [1]: < 5.30

Nc1ncnc2c1c(-c1cccc(OCc3ccccc3)c1)cn2CC1CC2CNCC2C1 (centres unmarked) [Example 358]
pIC50 (IGF 3P): < 5.30 | pIC50 [1]: < 5.30

CCN(CC)CCCNc1cc(Nc2cc(C(C)C)[nH]n2)nc(NCc2cc(-c3ccccc3)no2)n1 [Example 495]
pIC50 (IGF 3P): > 7.30 | pIC50 [1]: 6.30 to 7.30

CC(C)c1cc(Nc2cc(N3CCOCC3)nc(NCc3cc(-c4ccccc4)no3)n2)n[nH]1 [Example 496]
pIC50 (IGF 3P): > 7.30 | pIC50 [1]: 6.30 to 7.30

From patent US8211929B2, “Pyrimidine derivatives as kinase modulators and method of use” (Exelixis, Inc., priority 2004, dated 2012)
